# What was measured:
# Activin receptor type-1 [1] = target: T1, Activin receptor type-1 (Homo sapiens, UniProt Q04771); experiment: Luminescence-Based ADPGlo Kinase Activity Assay: Example 53: The assays were performed in 384-well, low volume microtiter assay plates in a final reaction volume of 6 ul. Dose-response curves were generated by incubating 10 nM of each kinase in 50 mM Hepes pH 7.5, 0.02% Tween 20, 0.02% BSA, 1 mM DTT, 10 uM Na3VO4, 10 mM ß-Glycerolphosphate, 1 mM MgCl2, 12 mM MnCl2 and 15 uM ATP for 60 min at 32° C. in the presence or absence of compound diluted in DMS. The amount of generated ADP is a measure of kinase activity and is quantified using the ADP-Glo Kinase Assay (Promega) according to manufacturer's instructions. […] and incubation at 32° C. for 60 min. ATP is subsequently converted into a bioluminescent signal by adding 6 ul luciferase assay reagents (Kinase detection buffer+Kinase Detection Substrate (Promega)) and further incubation at 32° C. for 60 min. For the measurement of luminescence a PHERAstar Multilabel Reader was used at a measurement interval time of 0.1 second (optical module for luminescence measurements in the 230 nm to 750 nm wavelength range). The luminescent signal positively correlates with kinase activity.
# T1 sequence (Q04771 whole entry): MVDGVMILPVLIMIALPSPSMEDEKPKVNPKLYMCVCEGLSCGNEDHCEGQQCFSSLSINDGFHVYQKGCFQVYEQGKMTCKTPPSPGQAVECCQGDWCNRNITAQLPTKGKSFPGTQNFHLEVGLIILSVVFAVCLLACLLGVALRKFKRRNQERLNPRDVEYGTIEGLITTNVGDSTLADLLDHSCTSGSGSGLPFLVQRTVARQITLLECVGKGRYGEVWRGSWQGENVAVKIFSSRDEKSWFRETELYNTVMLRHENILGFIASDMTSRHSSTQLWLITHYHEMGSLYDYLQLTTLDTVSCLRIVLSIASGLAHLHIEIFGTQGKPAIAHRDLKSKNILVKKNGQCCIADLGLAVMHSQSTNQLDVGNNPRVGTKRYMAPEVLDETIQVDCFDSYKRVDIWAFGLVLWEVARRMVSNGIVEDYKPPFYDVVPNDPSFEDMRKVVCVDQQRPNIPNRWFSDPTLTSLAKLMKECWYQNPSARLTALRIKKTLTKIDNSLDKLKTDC
# [2] = target: Bone morphogenetic protein receptor type-1A (Homo sapiens, UniProt P36894); experiment: Luminescence-Based ADPGlo Kinase Activity Assay: Example 53: The assays were performed in 384-well, low volume microtiter assay plates in a final reaction volume of 6 ul. Dose-response curves were generated by incubating 10 nM of each kinase in 50 mM Hepes pH 7.5, 0.02% Tween 20, 0.02% BSA, 1 mM DTT, 10 uM Na3VO4, 10 mM ß-Glycerolphosphate, 1 mM MgCl2, 12 mM MnCl2 and 15 uM ATP for 60 min at 32° …
# Bone morphogenetic protein receptor type-1A, sequence (P36894 whole entry): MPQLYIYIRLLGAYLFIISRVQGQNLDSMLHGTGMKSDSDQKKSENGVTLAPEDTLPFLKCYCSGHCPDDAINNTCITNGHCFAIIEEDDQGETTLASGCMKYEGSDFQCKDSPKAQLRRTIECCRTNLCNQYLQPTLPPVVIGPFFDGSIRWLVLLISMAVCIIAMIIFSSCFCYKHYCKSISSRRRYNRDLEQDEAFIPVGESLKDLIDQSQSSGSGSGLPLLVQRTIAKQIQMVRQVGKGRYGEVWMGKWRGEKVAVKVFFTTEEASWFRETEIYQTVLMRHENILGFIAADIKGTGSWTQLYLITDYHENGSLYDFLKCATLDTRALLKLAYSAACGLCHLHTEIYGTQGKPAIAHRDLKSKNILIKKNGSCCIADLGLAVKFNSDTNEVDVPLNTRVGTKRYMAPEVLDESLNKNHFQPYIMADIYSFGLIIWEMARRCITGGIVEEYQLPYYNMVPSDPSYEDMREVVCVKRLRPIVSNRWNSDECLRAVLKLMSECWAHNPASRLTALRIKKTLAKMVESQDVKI
# Description: The amount of generated ADP is a measure of kinase activity and is quantified using the ADP-Glo Kinase Assay (Promega) according to manufacturer's instructions. ADP is converted to ATP by adding 3 ul of ADP-Glo Reagent and incubation at 32° C. for 60 min. ATP is subsequently converted into a bioluminescent signal by adding 6 ul luciferase assay reagents (Kinase detection buffer+Kinase Detection Substrate (Promega)) and further incubation at 32° C. for 60 min. […] The luminescent signal positively correlates with kinase activity.
# Activin receptor type-1 [3] = target: T1, Activin receptor type-1; experiment: (§1) In Vitro Enzyme Inhibition Using a Biochemical Peptide Phosphorylation Assay- Caliper Assay: Example 54:The assays were performed in 384-well, low volume microtiter assay plates in a final reaction volume of 9 ul.
# [4] = target: Activin receptor type-1-like (Homo sapiens, UniProt P37023); experiment: as §1
# Activin receptor type-1-like, sequence (P37023 whole entry): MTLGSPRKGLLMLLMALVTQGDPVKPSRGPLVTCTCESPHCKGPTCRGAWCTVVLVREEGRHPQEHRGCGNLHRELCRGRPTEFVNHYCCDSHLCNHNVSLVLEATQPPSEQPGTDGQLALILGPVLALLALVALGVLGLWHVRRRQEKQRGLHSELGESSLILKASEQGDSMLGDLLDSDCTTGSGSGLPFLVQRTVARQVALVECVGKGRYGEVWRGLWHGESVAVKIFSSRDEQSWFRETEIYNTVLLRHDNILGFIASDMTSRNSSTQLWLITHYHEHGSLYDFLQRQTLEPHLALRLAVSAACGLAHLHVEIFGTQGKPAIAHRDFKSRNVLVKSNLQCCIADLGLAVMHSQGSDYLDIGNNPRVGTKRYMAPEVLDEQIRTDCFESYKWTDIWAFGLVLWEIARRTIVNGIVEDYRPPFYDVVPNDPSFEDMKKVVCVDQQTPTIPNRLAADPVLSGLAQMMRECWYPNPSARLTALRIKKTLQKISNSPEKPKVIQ
# TGF-beta receptor type-1 = target: T2, TGF-beta receptor type-1 (Homo sapiens, UniProt P36897); experiment: as §1
# T2 sequence (P36897 whole entry): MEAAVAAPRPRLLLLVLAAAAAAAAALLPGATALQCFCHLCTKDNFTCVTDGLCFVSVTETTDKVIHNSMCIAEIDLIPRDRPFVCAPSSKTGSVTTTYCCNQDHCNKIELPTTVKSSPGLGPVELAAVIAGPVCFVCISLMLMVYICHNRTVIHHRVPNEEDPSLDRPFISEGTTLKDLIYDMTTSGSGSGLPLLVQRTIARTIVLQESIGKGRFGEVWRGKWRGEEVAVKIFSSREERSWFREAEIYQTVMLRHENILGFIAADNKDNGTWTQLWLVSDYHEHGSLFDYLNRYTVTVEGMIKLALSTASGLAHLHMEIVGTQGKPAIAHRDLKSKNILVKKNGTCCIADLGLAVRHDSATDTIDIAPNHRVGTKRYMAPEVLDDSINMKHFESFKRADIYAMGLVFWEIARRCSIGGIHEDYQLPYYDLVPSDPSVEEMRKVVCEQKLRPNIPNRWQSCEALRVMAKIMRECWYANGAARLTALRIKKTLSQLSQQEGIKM
# [5] = target: Bone morphogenetic protein receptor type-1B (Homo sapiens, UniProt O00238); experiment: In Vitro Enzyme Inhibition Using a Biochemical Peptide Phosphorylation Assay- Caliper Assay: Example 54:The assays were performed in 384-well, low volume microtiter assay plates in a final reaction volume of 9 ul. Dose-response curves were generated by incubating 10 nM of each kinase together with 2 uM of the fluorescently labeled substrate peptide 5-Fluo-Ahx-KKYQAEEN-T-YDEYENKK-amid (10 mM stock …
# Bone morphogenetic protein receptor type-1B, sequence (O00238 whole entry): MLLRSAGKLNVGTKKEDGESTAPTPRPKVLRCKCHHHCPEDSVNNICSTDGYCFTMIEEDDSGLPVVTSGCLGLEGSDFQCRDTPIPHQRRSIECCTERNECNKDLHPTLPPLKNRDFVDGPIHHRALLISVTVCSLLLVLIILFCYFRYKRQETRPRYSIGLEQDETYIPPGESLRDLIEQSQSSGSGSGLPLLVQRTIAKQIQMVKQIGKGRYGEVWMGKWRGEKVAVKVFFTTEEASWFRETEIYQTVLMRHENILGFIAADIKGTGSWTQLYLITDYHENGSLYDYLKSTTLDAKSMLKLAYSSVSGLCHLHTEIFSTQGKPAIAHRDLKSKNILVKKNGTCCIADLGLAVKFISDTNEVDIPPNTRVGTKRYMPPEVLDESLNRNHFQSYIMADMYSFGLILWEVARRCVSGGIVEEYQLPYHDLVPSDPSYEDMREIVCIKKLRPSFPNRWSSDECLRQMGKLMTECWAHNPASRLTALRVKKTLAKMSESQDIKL
structure (smiles),measurement,setting,value
CC(C)CN1c2ccc(-c3cncc(-c4ccc(=O)n(C(C)C)c4)c3)cc2CS1(=O)=O,IC50,Activin receptor type-1 [1],110 nM
same,IC50,[2],930 nM
same,IC50,Activin receptor type-1 [3],160 nM
same,IC50,[4],690 nM
same,IC50,TGF-beta receptor type-1,2400 nM
same,IC50,[5],1200 nM

# — ChEMBL document CHEMBL5728775, “Pyridinone derivatives and their use as selective ALK-2 inhibitors” (2021)
